We go through 25 molecules from patent US20170066717A1, “NEW PHENYLAZETIDINECARBOXYLATE OR -CARBOXAMIDE COMPOUNDS” (INVENTIVA, priority 2014, published 2017).

For one data set, the target named is T1, NURR-1/RXRα (Homo sapiens, UniProt P19793).
T1 construct: expressed in transfected cells; host or cells: Cos-7 cells
Kind of data set: Transactivation test, NURR-1-Gal4/RXRα, luciferase reporter in Cos-7 cells. It is filed as cell-based. As to conditions: for Emax: COS-7, induction level relative to reference XCT0135908 at 2×10^−5 M (=100%), read-out: hNurr1_RXRaFL Emax (%); for EC50: Cos-7 cells, NURR-1-Gal4/RXRα, luciferase reporter, read-out: hNurr1_RXRaFL EC50. In general terms: In a reporter assay the amount or activity of a reporter protein is the signal.

Another data set addresses T2, NURR-1/RXRγ (Homo sapiens, UniProt P48443).
T2 construct: expressed in transfected cells; host or cells: Cos-7 cells
Kind of data set: Transactivation test, NURR-1-Gal4/RXRγ, luciferase reporter in Cos-7 cells. The data set is classed as cell-based. The settings on record: for Emax: COS-7, induction level relative to reference XCT0135908 at 2×10^−5 M (=100%), read-out: hNurr1_RXRgFL Emax (%); for EC50: Cos-7 cells, NURR-1-Gal4/RXRγ, luciferase reporter, read-out: hNurr1_RXRgFL EC50.

Setting [1] is: induction level relative to reference XCT0135908 at 2×10^−5 M (=100%).

Structures can show the parent of a compound that is named as a salt.

T2 sequence (P48443 whole entry): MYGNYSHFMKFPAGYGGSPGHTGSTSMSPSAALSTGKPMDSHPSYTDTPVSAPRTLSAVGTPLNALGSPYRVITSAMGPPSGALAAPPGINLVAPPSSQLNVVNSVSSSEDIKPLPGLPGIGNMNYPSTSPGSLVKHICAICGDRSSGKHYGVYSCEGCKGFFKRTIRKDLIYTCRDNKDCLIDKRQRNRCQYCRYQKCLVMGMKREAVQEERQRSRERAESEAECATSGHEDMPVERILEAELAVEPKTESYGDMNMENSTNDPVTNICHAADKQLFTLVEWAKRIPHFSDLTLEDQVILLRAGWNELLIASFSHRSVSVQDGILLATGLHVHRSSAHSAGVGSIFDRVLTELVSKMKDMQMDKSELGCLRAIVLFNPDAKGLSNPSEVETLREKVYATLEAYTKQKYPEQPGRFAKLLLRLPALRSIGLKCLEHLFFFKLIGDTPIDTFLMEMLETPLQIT
T2 sequence (P43354 whole entry partner): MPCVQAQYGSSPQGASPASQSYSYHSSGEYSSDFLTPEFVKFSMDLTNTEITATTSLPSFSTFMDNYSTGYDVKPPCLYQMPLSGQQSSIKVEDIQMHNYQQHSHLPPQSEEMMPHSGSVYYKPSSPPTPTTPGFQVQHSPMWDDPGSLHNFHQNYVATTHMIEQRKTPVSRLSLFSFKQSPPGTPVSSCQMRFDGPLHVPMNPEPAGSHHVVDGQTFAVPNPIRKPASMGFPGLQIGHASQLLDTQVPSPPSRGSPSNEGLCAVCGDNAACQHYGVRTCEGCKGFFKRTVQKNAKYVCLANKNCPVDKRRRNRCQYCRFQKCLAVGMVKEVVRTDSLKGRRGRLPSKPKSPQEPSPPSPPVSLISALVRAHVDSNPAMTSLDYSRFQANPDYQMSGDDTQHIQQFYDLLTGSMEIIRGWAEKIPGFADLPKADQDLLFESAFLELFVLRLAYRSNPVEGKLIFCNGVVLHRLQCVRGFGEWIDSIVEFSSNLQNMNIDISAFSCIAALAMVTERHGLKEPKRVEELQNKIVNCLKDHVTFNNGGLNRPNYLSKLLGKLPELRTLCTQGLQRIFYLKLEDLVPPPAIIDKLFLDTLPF
T2 sequence (P04386 1-147 partner limits assumed): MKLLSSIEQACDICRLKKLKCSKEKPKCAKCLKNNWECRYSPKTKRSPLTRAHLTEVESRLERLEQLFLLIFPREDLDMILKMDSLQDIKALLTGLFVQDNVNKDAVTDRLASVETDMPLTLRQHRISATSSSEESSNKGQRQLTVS
T1 sequence (P19793 whole entry): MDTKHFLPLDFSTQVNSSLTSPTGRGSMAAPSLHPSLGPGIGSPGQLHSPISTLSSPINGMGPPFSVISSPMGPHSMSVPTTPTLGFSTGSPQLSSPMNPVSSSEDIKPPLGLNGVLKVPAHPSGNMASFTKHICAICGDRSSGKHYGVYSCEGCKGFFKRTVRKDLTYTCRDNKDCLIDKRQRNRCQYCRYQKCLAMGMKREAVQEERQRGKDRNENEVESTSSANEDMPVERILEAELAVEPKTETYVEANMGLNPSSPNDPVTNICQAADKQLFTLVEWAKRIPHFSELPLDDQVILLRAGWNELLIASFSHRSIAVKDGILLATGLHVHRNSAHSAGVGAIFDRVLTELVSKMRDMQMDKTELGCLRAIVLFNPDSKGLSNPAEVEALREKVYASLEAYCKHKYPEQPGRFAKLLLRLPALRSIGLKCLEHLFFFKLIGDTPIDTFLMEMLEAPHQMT
T1 sequence (P43354 whole entry partner): as the sequence (P43354 whole entry partner) above
T1 sequence (P04386 1-147 partner limits assumed): as the sequence (P04386 1-147 partner limits assumed) above

By melting point is commonly meant the temperature, or range, at which the solid turns liquid. `CC1(C)CN(CC(F)(F)F)c2c(cc(C(F)(F)F)cc2-c2cccc(N3CC(C(=O)O)C3)c2)O1` (as salt: ammonium) [Example 215, tert-butylammonium 1-[3-[2,2-dimethyl-4 (2,2,2-trifluoromethyl)-7-(trifluoromethyl)-3H-1,4-benzoxazin-5-yl]phenyl]azetidine-3-carboxylate]: the melting point fell in the range of 148 to 154 °C.

`CC(C)Cc1ccc2c(c1)OC(C)(C)CN2c1cccc(N2CC(C(=O)O)C2)c1` (as salt: ammonium) [Example 231, tert-butylammonium 1-[3-(7-isobutyl-2,2-dimethyl-3H-1,4-benzoxazin-4yl)phenyl]azetidine-3-carboxylate] gave a melting point of 120 to 121 °C.

`CC(C)c1ccc2c(c1)CC(C)(C)CN2c1cccc(N2CC(C(=O)O)C2)c1` (as salt: ammonium) [Example 245, tert-butylammonium 1-[3-(6-isopropyl-3,3-dimethyl-2,4-dihydroquinolin-1-yl)phenyl]azetidine-3-carboxylate]: the melting point lay in the range of 165 to 177 °C.

In the case of `CC1(C)Oc2cc(C#N)ccc2N(c2cccc(N3CC(C(=O)O)C3)c2)C1=O` (as salt: ammonium) [Example 254, tert-butylammonium 1-[3-(7-cyano-2,2-dimethyl-3-oxo-1,4-benzoxazin-4-yl)phenyl]azetidine-3-carboxylate], the melting point was in the range of 204 to 211 °C.

On to `O=C(O)C1CN(c2cccc(N3CC4(CCCC4)c4cc(Cl)ccc43)c2)C1` (as salt: ammonium) [Example 257, tert-butylammonium 1-[3-(5′-chlorospiro[cyclopentane-1,3′-indolin]-1′-yl)phenyl]azetidine-3-carboxyate], for which the melting point was in the range of 131 to 133 °C.

In turn, `CCC1(CC)C=C(c2cccc(N3CC(C(=O)O)C3)c2)c2ccc(C(F)(F)F)cc2O1` (as salt: ammonium) [Example 265] returned a melting point of 147 to 152 °C.

In the case of `CC1(C)CC(c2cccc(N3CC(C(=O)O)C3)c2)c2ccc(C(F)(F)F)cc2O1` (centres unmarked) (as salt: ammonium) [Example 270, tert-butylammonium 1-[3-[2,2-dimethyl-7-(trifluoromethyl)chroman-4-yl]phenyl]azetidine-3-carboxylate], the melting point fell in the range of 116 to 122 °C.

With `CCCc1ccc(C(C)C)cc1-c1cccc(N2CC(C(=O)O)C2)c1` (as salt: salt) [Example 195, piperazin-1-ium-1-[3-(5-isopropyl-2-propylphenyl)phenyl]azetidine-3-carboxylate], the melting point stood at 109 °C.

For `CC1(C)CN(c2cccc(N3CC(C(=O)O)C3)c2)c2ccc(Br)cc2O1` (as salt: sodium) [Example 222, sodium 1-[3-(7-bromo-2,2-dimethyl-3H-1,4-benzoxazin-4-yl)phenyl]azetidine-3-carbxoylate], the melting point was determined as 140 °C.

In the case of `O=C(O)C1CN(c2cccc(N3CCOc4cc(C(F)(F)F)ncc43)c2)C1` (as salt: sodium) [Example 240, sodium 1-[3-[7-(trifluoromethyl)-2,3-dihydropurido[4,3][1,4]oxazin-4-yl]phenyl]azetidine-3-carboxylate], the melting point was in the range of 49 to 63 °C.

Broadly, the Emax is the greatest response seen or fitted, relative to the assay's reference. As a reminder, the EC50 is the concentration giving half of the maximal effect. For the molecule `CC1COc2cc(C(F)(F)F)ccc2N1c1cccc(N2CC(C(=O)O)C2)c1` (single isomer, unassigned; isomer 1) [Example 124-1, 1-[3-[3-methyl-7-(trifluoromethyl)-2,3-dihydro-1,4-benzoxazin-4-yl]phenyl]azetidine-3-carboxylic acid, isomer 1], the melting point came to 61 °C. For the same molecule, at NURR-1/RXRα, the Emax turned out to be 107% and the EC50 worked out at 118 nM. Moreover, at NURR-1/RXRγ, the maximal effect (Emax) was 101% and the EC50 is 211 nM.

`CC1(C)CCC2C(C1)c1cc(C(F)(F)F)ccc1N2c1cccc(N2CC(C(=O)O)C2)c1` (single isomer, unassigned; isomer 1) [Example 145-1, 1-[3-[3,3-dimethyl-6-(trifluoromethyl)-2,4,4a,9a-tetrahydro-1H-carbazol-9-yl]phenyl]azetidine-3-carboxylic acid (isomer 1)] gave a melting point of 84 to 91 °C. Moreover, on NURR-1/RXRα, the Emax stood at 82% and the EC50 came to 37 nM. At NURR-1/RXRγ, the Emax is 90% and the EC50 stood at 103 nM.

As for `CC1(C)CCC2C(C1)c1cc(C(F)(F)F)ccc1N2c1cccc(N2CC(C(=O)O)C2)c1` (single isomer, unassigned; isomer 2) [Example 145-2, 1-[3-[3,3-dimethyl-6-(trifluoromethyl)-2,4,4a,9a-teterahydro-1H-carbazol-9-yl]phenyl]azetidine-3-carboxylic acid (isomer 2)], the melting point lay in the range of 82 to 94 °C. Besides, the concentration for a half-maximal effect (EC50) at NURR-1/RXRα is 2 nM. Also, the “hNurr1_RXRaFL Emax (%)” value at NURR-1/RXRα (setting [1]) worked out at 86%. Moreover, on NURR-1/RXRγ, the EC50 is less than 1 nM. Besides, at NURR-1/RXRγ (setting [1]), the “hNurr1_RXRgFL Emax (%)” value was 99%.

Molecule `O=C(O)C1CN(c2cccc(-c3cc(C(F)(F)F)cc4c3NCCO4)c2)C1` [Example 65, 1-[3-[7-(trifluoromethyl)-3,4-dihydro-2H-1,4-benzoxazin-5-yl]phenyl]azetidine-3-carboxylic acid] yielded a melting point of 76 to 79 °C. Moreover, at NURR-1/RXRα, the Emax was 99% and the EC50 was 10 nM.

In turn, `CN(C)C(=O)c1cn(-c2cccc(N3CC(C(=O)O)C3)c2)c2ccc(C(F)(F)F)cc12` [Example 131] came in with a melting point of 230 to 234 °C. For the same molecule, at NURR-1/RXRα, the Emax was 55% and the EC50 turned out to be 2920 nM.

`CCS(=O)(=O)c1cn(-c2cccc(N3CC(C(=O)O)C3)c2)c2ccc(C(F)(F)F)cc12` [Example 138, 1-[3-[3-(ethylsulfonyl)-5-(trifluoromethyl)indol-1-yl]phenyl]azetidine-3-carboxylic acid] gave a melting point of 161 to 168 °C. On NURR-1/RXRα, the Emax is 116% and the EC50 was 134 nM.

As to `CC(C)(C)c1cc2c(c(-c3cccc(N4CC(C(=O)[O-])C4)c3)c1)NCC1(CCC1)O2.[Na+]` [Example 205, sodium 1-[3-(7-tert-butylspiro[3,4-dihydro-1,4-benzoxazine-2,1′-cyclobutane]-5-yl)phenyl]azetidine-3-carboxylate], the melting point was in the range of 190 to 200 °C. Also, at NURR-1/RXRα, the Emax was 115% and the EC50 came out at 4 nM.

`CC(C)c1cc2c(c(-c3cccc(N4CC(C(=O)[O-])C4)c3)c1)NCC(C)(C)C2.[Na+]` [Example 208, sodium 1-[3-(6-isopropyl-3,3-dimethyl-2,4-dihydro-1H-quinoline-8-yl)phenyl]azetidine-3-carboxylate] registered a melting point of 196 to 203 °C. On NURR-1/RXRα, the Emax turned out to be 109% and the 50% effective concentration (EC50) was 11 nM.

In turn, `Cc1cc2c(c(-c3cccc(N4CC(C(=O)[O-])C4)c3)c1)NCCC(C)(C)O2.[Na+]` [Example 209, sodium 1-[3-(2,2,8-trimethyl4,5-dihydro-3H-1,5-benzoxazepin-6-yl)phenyl]azetidine-3-carboxylate] displayed a melting point of 145 to 154 °C. On NURR-1/RXRα, the Emax worked out at 95% and the EC50 was determined as 212 nM.

For `CC1(C)CCNc2c(cc(C(C)(C)C)cc2-c2cccc(N3CC(C(=O)[O-])C3)c2)O1.[Na+]` [Example 210, sodium 1-[3-(8-tert-butyl-2,2-dimethyl-4,5-dihydro-3H-1,5-benzoxazepin-6-yl)phenyl]azetidine-3-carboxylate], the melting point lay in the range of 169 to 176 °C. In addition, at NURR-1/RXRα, the Emax came to 88% and the EC50 turned out to be 75 nM.

For `CN1CC(C)(C)Oc2cc(C(C)(C)C)cc(-c3cccc(N4CC(C(=O)[O-])C4)c3)c21.[Na+]` [Example 211, sodium 1-[3-(7-tert-butyl-2,2,4-trimethyl-3H-1,4-benzoxazin-5-yl)phenyl]azetidine-3-carbxoylate], the melting point lay in the range of 245 to 246 °C. On NURR-1/RXRα, the Emax stood at 94% and the EC50 was found to be 0.91 nM.

As to `CC1(C)Oc2cc(C#N)ccc2N(c2cccc(N3CC(C(=O)O)C3)c2)C1=O` [Example 253, 1-[3-(7-cyano-2,2-dimethyl-3-oxo-1,4-benzoxazin-4-yl)phenyl]azetidine-3-carboxylic acid], the melting point was 88 to 104 °C.

Molecule `CC1(C)C=C(c2cccc(N3CC(C(=O)[O-])C3)c2)c2ccc(C(C)(C)C)cc2O1.[Na+]` [Example 267, sodium 1-[3-(7-tert-butyl-2,2-dimethylchromen-4-yl)phenyl]azetidine-3-carboxylate] yielded a melting point of 212 to 233 °C. Moreover, on NURR-1/RXRα, the Emax was found to be 115% and the EC50 is 13 nM.

Molecule `O=C([O-])C1CN(c2cccc(C3=CC4(CCC4)Oc4cc(C(F)(F)F)ccc43)c2)C1.[Na+]` [Example 268, sodium 1-[3-[7-(trifluoromethyl)spiro[chromene-2,1′-cyclobutane]-4-yl]phenyl]azetidine-3-carboxylate] yielded a melting point of 177 to 191 °C. In addition, on NURR-1/RXRα, the Emax was 107% and the EC50 was approximately 1 nM.

`CC1(C)N=C(c2cccc(N3CC(C(=O)[O-])C3)c2)c2ccc(C(F)(F)F)cc2O1.[Na+]` [Example 271, sodium 1-[3-[2,2-dimethyl-7-(trifluoromethyl)-1,3-benzoxazin-4-yl]phenyl]azetidine-3-carboxylate] yielded a melting point of 141 to 146 °C. Moreover, on NURR-1/RXRα, the Emax worked out at 114% and the EC50 was 26 nM.
